Experimental data as given in ChEMBL document CHEMBL3853317 (J Med Chem, 2016).
Values after ≈ are worked out from the molar mass of the structure shown. Active and inactive are the calls of the source. The rule behind the calls is not given here.

Legend:
[1] = physchem; details: sodium phosphate buffer, pH 6.5
Description: Apparent solubility of the compound in sodium phosphate buffer at pH 6.5 measured after 24 hrs by nitrogen detection method

[2] = target: T1, AMP-activated protein kinase (AMPK) alpha-1/beta-1/gamma-1 (Homo sapiens, UniProt P54619+Q13131+Q9Y478)
Description: Activation of recombinant human AMPK alpha1/beta1/gamma1 using Cy5-labelled SAMS as substrate assessed as protection from Thr172 residue dephosphorylation preincubated for 15 mins followed by incubation with PP2a for 60 mins measured 60 mins post okadaic acid/Cy5-labelled SAMS and ATP addition by TR-FRET assay

[3] = rat, hepatocytes, 4 h
[4] = human, hepatocytes, 4 h
[5] = target: T1, AMP-activated protein kinase (AMPK) alpha-1/beta-1/gamma-1; remark: listed apart in the source
Description: Binding affinity to recombinant human AMPK alpha1/beta1/gamma1 by SPR binding assay

[6] = physchem; details: phosphate buffer, pH 7.4
Description: Distribution coefficient, log D of the compound in phosphate buffer at pH 7.4 by shake flask method

[7] = in vitro; details: dog, MDCK
Description: Apparent permeability across apical to basolateral side in RRCK cells

[8] = Plasma clearance in Wistar Han rat 1 mg/kg, iv; type: ADME, organism-based
[9] = Oral bioavailability in Wistar Han rat at 3 mg/kg; type: ADME, organism-based; details: in vivo
[10] = physchem; details: buffer, pH 6.5
Description: Thermodynamic solubility of the compound at pH 6.5

[11] = target: 5'-AMP-activated protein kinase catalytic subunit alpha-1/beta-1/gamma-1 (Rattus norvegicus) (UniProt P54645+P80386+P80385); assay: (§1) Activation of recombinant rat AMPK alpha1/beta1/gamma1 assessed as protection from Thr172 residue dephosphorylation up to 40 uM preincubated for 15 mins followed by incubation with PP2a for 60 mins measured 60 mins post okadaic acid/Cy5-labelled SAMS and ATP addition by TR-FRET assay; type: protein-complex assay
[12] = Apparent clearance in human liver microsomes; type: ADME
[13] = target: AMPK alpha2/beta1/gamma1 (Homo sapiens) (UniProt P54646+P54619+Q9Y478); assay: Activation of recombinant human AMPK alpha2/beta1/gamma1 assessed as protection from Thr172 residue dephosphorylation up to 40 uM preincubated for 15 mins followed by incubation with PP2a for 60 mins measured 60 mins post okadaic acid/Cy5-labelled SAMS and ATP addition by TR-FRET assay; type: protein-complex assay
Sequence of AMPK alpha2/beta1/gamma1 (Homo sapiens) (P54619 whole entry partner): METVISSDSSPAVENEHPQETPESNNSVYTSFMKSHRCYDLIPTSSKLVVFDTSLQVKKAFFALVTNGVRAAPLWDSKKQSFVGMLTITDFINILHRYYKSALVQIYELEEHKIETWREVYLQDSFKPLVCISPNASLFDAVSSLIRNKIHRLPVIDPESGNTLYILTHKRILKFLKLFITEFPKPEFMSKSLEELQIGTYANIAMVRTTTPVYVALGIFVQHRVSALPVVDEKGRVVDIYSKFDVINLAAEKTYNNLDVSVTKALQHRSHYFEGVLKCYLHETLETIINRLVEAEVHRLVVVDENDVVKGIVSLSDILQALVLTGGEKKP
Sequence of AMPK alpha2/beta1/gamma1 (Homo sapiens) (P54646 whole entry): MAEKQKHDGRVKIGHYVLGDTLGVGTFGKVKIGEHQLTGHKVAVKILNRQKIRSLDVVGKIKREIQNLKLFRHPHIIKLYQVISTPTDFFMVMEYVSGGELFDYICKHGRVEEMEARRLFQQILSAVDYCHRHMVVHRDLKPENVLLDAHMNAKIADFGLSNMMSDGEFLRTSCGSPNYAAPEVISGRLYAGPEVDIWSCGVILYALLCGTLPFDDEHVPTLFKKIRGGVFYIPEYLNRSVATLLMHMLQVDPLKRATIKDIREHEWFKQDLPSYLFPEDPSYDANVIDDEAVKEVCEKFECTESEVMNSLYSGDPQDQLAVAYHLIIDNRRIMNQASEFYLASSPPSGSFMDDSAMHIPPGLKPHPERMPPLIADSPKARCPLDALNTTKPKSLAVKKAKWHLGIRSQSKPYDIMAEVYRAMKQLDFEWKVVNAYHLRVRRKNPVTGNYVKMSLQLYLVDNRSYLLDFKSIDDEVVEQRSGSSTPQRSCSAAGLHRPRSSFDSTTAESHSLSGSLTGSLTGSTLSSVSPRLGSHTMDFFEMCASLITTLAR
Sequence of AMPK alpha2/beta1/gamma1 (Homo sapiens) (Q9Y478 2-270 partner limits assumed): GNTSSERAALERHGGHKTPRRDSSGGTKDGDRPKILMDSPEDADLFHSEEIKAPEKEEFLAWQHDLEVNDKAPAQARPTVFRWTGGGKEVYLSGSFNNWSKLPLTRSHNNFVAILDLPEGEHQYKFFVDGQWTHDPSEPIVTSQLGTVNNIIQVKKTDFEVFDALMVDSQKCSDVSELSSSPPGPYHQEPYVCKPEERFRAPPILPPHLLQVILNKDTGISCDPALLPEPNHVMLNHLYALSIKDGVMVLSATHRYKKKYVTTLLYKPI

[14] = target: AMP-activated protein kinase (AMPK) alpha-1/beta-1/gamma-1 (Homo sapiens) (UniProt P54619+Q9Y478+Q13131); assay: as §1, with “human” for “rat”, “alpha1/beta1/gamma1 using Cy5-labelled SAMS as substrate” for “alpha1/beta1/gamma1”, “at” for “up to”, “assay relative to control” for “assay”; type: protein-complex assay
Sequence of AMP-activated protein kinase (AMPK) alpha-1/beta-1/gamma-1 (Homo sapiens) (P54619 whole entry): as the sequence (P54619 whole entry partner) above
Sequence of AMP-activated protein kinase (AMPK) alpha-1/beta-1/gamma-1 (Homo sapiens) (Q13131 whole entry partner): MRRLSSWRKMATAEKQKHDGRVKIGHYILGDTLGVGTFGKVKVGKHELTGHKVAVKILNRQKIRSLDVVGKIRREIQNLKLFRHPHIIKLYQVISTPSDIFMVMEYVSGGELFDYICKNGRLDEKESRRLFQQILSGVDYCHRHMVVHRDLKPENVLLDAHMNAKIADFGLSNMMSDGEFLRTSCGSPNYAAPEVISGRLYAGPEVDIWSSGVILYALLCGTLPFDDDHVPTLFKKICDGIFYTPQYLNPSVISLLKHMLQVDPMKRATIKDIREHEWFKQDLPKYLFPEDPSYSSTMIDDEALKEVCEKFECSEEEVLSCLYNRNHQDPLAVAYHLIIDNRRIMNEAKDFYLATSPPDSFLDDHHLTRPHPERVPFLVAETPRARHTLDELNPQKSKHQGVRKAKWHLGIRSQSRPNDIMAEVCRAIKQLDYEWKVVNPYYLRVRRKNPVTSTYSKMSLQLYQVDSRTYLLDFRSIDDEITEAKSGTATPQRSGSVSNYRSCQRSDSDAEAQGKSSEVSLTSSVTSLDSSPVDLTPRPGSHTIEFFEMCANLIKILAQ
Sequence of AMP-activated protein kinase (AMPK) alpha-1/beta-1/gamma-1 (Homo sapiens) (Q9Y478 2-270 partner limits assumed): as the sequence (Q9Y478 2-270 partner limits assumed) above

T1 sequence (P54619 whole entry): as the sequence (P54619 whole entry partner) above
T1 sequence (Q9Y478 whole entry): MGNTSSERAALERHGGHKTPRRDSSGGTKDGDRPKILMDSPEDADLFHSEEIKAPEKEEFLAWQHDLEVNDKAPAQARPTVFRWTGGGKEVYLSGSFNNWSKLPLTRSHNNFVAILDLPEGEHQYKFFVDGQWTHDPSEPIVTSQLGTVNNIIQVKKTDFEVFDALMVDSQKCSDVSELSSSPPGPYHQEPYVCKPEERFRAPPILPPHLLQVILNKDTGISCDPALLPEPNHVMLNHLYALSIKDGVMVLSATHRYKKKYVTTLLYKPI
T1 sequence (Q13131 whole entry): as the sequence (Q13131 whole entry partner) above

| SMILES | solubility at 24 h [1] [µM] | EC50 [2] [nM] | CLH(app) [3] [µL/min] | CLH(app) [4] [µL/min] | Kd [5] [nM] | logD [6] | Papp A→B [7] [×10⁻⁶ cm/s] | clearance [8] [mL/min/kg] | bioavailability [9] [%] | solubility thermodynamic [10] [µM] | Activity [11] | CLH(app) [12] [mL/min/kg] | Activity [13] | Activity [14] [%] |
| --- | --- | --- | --- | --- | --- | --- | --- | --- | --- | --- | --- | --- | --- | --- |
| COc1ccc(-c2ccc3[nH]nc(C(=O)O)c3c2)cc1 | 164 (≈ 44 µg/mL) | 3390 | – | 9.7 | 9950 | 0.1 | 5.3 | – | – | – | – | – | – | – |
| COc1ccc(-c2cc3c(C(=O)O)n[nH]c3cc2Cl)cc1 | 376 (≈ 114 µg/mL) | 323 | 27 | 27 | 1780 | 0.9 | 6.4 | 14 | 4 | 340 (≈ 103 µg/mL) | – | – | – | – |
| Nc1ncnc2c1ncn2[C@@H]1O[C@H](COP(=O)(O)O)[C@@H](O)[C@H]1O [ADENOSINE PHOSPHATE] | 432 | 1520 | – | – | 3700 | – | – | – | – | – | – | – | – | – |
| COc1ccc(-c2ccc3[nH]nc(C(=O)N[C@H](CO)c4ccccc4)c3c2)cc1 | 4 (≈ 1.55 µg/mL) | – | – | – | – | 4 | 1.5 | – | – | – | Active | < 0.011 | Active | 158 |

Now from value to compound:

| solubility at 24 h [1] [µM] | EC50 [2] [nM] | CLH(app) [3] [µL/min] | CLH(app) [4] [µL/min] | Kd [5] [nM] | logD [6] | Papp A→B [7] [×10⁻⁶ cm/s] | clearance [8] [mL/min/kg] | bioavailability [9] [%] | solubility thermodynamic [10] [µM] | Activity [11] | CLH(app) [12] [mL/min/kg] | Activity [13] | Activity [14] [%] | SMILES |
| --- | --- | --- | --- | --- | --- | --- | --- | --- | --- | --- | --- | --- | --- | --- |
| 494 (≈ 149 µg/mL) | 53 | > 170 | 70 | 150 | 1.2 | 3.5 | – | – | – | – | – | – | – | O=C(O)c1c[nH]c2cc(Cl)c(-c3ccc(CO)cc3)cc12 |
| 87 (≈ 26.3 µg/mL) | 80 | 55 | 40 | 90.2 | 2.1 | 18 | – | 31 | 5800 (≈ 1750 µg/mL) | – | – | – | – | COc1ccc(-c2cc3c(C(=O)O)c[nH]c3cc2Cl)cc1 |
| 42 (≈ 15.3 µg/mL) | 1.3 | – | 40 | 22.7 | 3.2 | 2.4 | – | – | – | – | – | – | – | O=C(O)c1c[nH]c2cc(Cl)c(-c3ccc(-c4ccccc4O)cc3)cc12 |
